Among the data in US20230271941A1, “COMPOUNDS AND COMPOSITIONS FOR TREATING CONDITIONS ASSOCIATED WITH STING ACTIVITY” (IFM Due, Inc., priority 2020, published 2023) are EC50 values, retold here.

pEC50: −log10 of the molar value.

What is called pEC50 is the EC50 on a negative log10 scale, so that one unit is a factor of ten.

In the test the target is T1, hSTING (Homo sapiens, UniProt Q86WV6, G230A/H232R/R293Q/R71H).
T1 construct: host or cells: THP1-Dual KO-IFNAR2 cells
T1 sequence (Q86WV6 whole entry R71H/G230A/H232R/R293Q): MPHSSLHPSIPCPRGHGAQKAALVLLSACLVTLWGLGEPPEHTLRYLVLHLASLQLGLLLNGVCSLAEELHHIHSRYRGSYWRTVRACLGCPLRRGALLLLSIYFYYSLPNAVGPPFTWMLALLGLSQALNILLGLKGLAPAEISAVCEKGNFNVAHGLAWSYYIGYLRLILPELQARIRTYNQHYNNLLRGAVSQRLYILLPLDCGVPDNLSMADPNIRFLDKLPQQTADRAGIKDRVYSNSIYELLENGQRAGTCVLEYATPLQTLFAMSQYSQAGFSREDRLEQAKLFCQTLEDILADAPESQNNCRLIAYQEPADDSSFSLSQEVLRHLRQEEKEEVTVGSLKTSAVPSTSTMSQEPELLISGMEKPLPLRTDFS
The experiment in a line: STING reporter assay: THP1-Dual KO-IFNAR2 cells stimulated with 2′3′cGAMP, luciferase reporter activity. The settings on record: 15 μM 2′3′cGAMP transfected with Lipofectamine 2000, 24 h, luciferase reporter (QUANTI-Luc). The class given is cell-based. Here is the method: STING pathway activation by the compounds described herein was measured using THP1-Dual™ cells (KO-IFNAR2).
THP1-Dual™ KO-IFNAR2 Cells (obtained from invivogen) were maintained in RPMI, 10% FCS, 5 ml P/S, 2 mM L-glut, 10 mM Hepes, and 1 mM sodium pyruvate. Compounds were spotted in empty 384 well tissue culture plates (Greiner 781182) by Echo for a final concentration of 0.0017-100 μM. Cells were plated into the TC plates at 40 μL per well, 2×10E6 cells/mL. For activation with STING ligand, 2′3′cGAMP (MW 718.38, obtained from Invivogen), was prepared in Optimem media.
The following solutions were prepared for each 1×384 plate: • Solution A: 2 mL Optimem with one of the following stimuli: • 60 μL of 10 mM 2′3′cGAMP→150 μM stock • Solution B: 2 mL Optimem with 60 μL Lipofectamine 2000→Incubate 5 min at RT
2 mL of solution A and 2 ml Solution B was mixed and incubated for 20 min at room temperature (RT). 20 μL of transfection solution (A+B) was added on top of the plated cells, with a final 2′3′cGAMP concentration of 15 μM. The plates were then centrifuged immediately at 340 g for 1 minute, after which they were incubated at 37° C., 5% CO2, >98% humidity for 24 h. Luciferase reporter activity was then measured. EC50 values were calculated by using standard methods known in the art.
Luciferase reporter assay: 10 μL of supernatant from the assay was transferred to white 384-plate with flat bottom and squared wells. One pouch of QUANTI-Luc™ Plus was dissolved in 25 mL of water. 100 μL of QLC Stabilizer per 25 mL of QUANTI-Luc™Plus solution was added. 50 μL of QUANTI-Luc™ Plus/QLC solution per well was then added. Luminescence was measured on a Platereader (e.g., Spectramax I3X (Molecular Devices GF3637001)).
Luciferase reporter activity was then measured. EC50 values were calculated by using standard methods known in the art.
On the technique in general: In a reporter assay the amount or activity of a reporter protein is the signal.
Turning to `CC(c1ccc(C(F)(F)F)cc1)n1cc(C(=O)Nc2c[nH]c3cc(F)c(F)cc23)cn1` (single isomer, unassigned) [Compound 120, (R or S)-N-(5,6-difluoro-1H-indol-3-yl)-1-(1-(4-(trifluoromethyl)phenyl)ethyl)-1H-pyrazole-4-carboxamide], the pEC50 is 6.00 to 6.70.
To `O=C(Nc1c[nH]c2cc(F)c(F)cc12)c1csc(-c2cccc(C(F)(F)F)c2)n1` [Compound 101, N-(5,6-difluoro-1H-indol-3-yl)-2-(3-(trifluoromethyl)phenyl)thiazole-4-carboxamide] belongs 6.00 to 6.70.
With `O=C(Nc1c[nH]c2cc(Cl)ccc12)c1cnn(Cc2ccc(C(F)(F)F)cc2)c1` [Compound 102, N-(6-chloro-1H-indol-3-yl)-1-[[4-(trifluoromethyl)phenyl]methyl]pyrazole-4-carboxamide], the pEC50 is 6.00 to 6.70.
To `O=C(Nc1c[nH]c2cc(F)ccc12)c1ccn(Cc2ccc(C(F)(F)F)cc2)n1` [Compound 103, N-(6-fluoro-1H-indol-3-yl)-1-(4-(trifluoromethyl)benzyl)-1H-pyrazole-3-carboxamide] belongs 6.00 to 6.70; to `O=C(Nc1c[nH]c2cc(F)ccc12)c1cn(Cc2ccc(C(F)(F)F)cc2)cn1` [Compound 104, N-(6-fluoro-1H-indol-3-yl)-1-(4-(trifluoromethyl)benzyl)-1H-imidazole-4-carboxamide], 6.00 to 6.70.
As for `O=C(Nc1c[nH]c2cc(F)c(F)cc12)c1cn(Cc2ccc(C(F)(F)F)cc2)nn1` [Compound 105, N-(5,6-difluoro-1H-indol-3-yl)-1-(4-(trifluoromethyl)benzyl)-1H-1,2,3-triazole-4-carboxamide], the pEC50 is 6.00 to 6.70.
Next, `O=C(Nc1c[nH]c2cc(F)c(F)cc12)c1cn(-c2ccc(C(F)(F)F)cc2)nn1` [Compound 106, N-(5,6-difluoro-1H-indol-3-yl)-1-(4-(trifluoromethyl)phenyl)-1H-1,2,3-triazole-4-carboxamide]: 6.00 to 6.70; `O=C(Nc1c[nH]c2cc(Cl)c(F)cc12)c1cnn(Cc2ccc(C(F)(F)F)cc2)c1` [Compound 107, N-(6-chloro-5-fluoro-1H-indol-3-yl)-1-(4-(trifluoromethyl)benzyl)-1H-pyrazole-4-carboxamide]: 6.00 to 6.70.
Next, `O=C(Nc1c[nH]c2cc(F)c(F)cc12)c1cc(-c2ccc(Cl)cc2)n[nH]1` [Compound 108, 3-(4-chlorophenyl)-N-(5,6-difluoro-1H-indol-3-yl)-1H-pyrazole-5-carboxamide]: 6.00 to 6.70; `O=C(Nc1c[nH]c2cc(F)c(F)cc12)c1cc(-c2ccccn2)on1` [Compound 109, N-(5,6-difluoro-1H-indol-3-yl)-5-(pyridin-2-yl)-1,2-oxazole-3-carboxamide]: 6.00 to 6.70; `O=C(Nc1c[nH]c2cc(F)c(F)cc12)c1ncn(-c2ccccc2)n1` [Compound 110, N-(5,6-difluoro-1H-indol-3-yl)-1-phenyl-1H-1,2,4-triazole-3-carboxamide]: 6.70 to 7.40.
As for `O=C(Nc1c[nH]c2cc(F)c(F)cc12)c1csc(-c2ccccc2)n1` [Compound 111, N-(5,6-difluoro-1H-indol-3-yl)-2-phenyl-1,3-thiazole-4-carboxamide], the pEC50 is 5.30 to 6.00.
To `O=C(Nc1c[nH]c2cc(F)c(F)cc12)c1csc(Cc2ccccc2)n1` [Compound 112, 2-benzyl-N-(5,6-difluoro-1H-indol-3-yl)-1,3-thiazole-4-carboxamide] belongs 5.30 to 6.00.
Next, `Cn1nc(C(=O)Nc2c[nH]c3cc(F)c(F)cc23)cc1Cc1ccc(C(F)(F)F)cc1` [Compound 113, N-(5,6-difluoro-1H-indol-3-yl)-1-methyl-5-(4-(trifluoromethyl)benzyl)-1H-pyrazole-3-carboxamide]: 6.00 to 6.70.
`Cc1cc(C(=O)Nc2c[nH]c3cc(F)c(F)cc23)nn1Cc1ccc(C(F)(F)F)cc1` [Compound 114, N-(5,6-difluoro-1H-indol-3-yl)-5-methyl-1-(4-(trifluoromethyl)benzyl)-1H-pyrazole-3-carboxamide] showed a pEC50 of 6.00 to 6.70.
For the compound `O=C(Nc1c[nH]c2ccc(F)cc12)c1cnn(Cc2ccc(C(F)(F)F)cc2)c1` [Compound 115, N-(5-fluoro-1H-indol-3-yl)-1-(4-(trifluoromethyl)benzyl)-1H-pyrazole-4-carboxamide], the pEC50 is 6.00 to 6.70.
`O=C(Nc1c[nH]c2cc(F)c(F)cc12)c1cnn(C2CCCCC2)c1` [Compound 116, 1-cyclohexyl-N-(5,6-difluoro-1H-indol-3-yl)-1H-pyrazole-4-carboxamide]: the pEC50 was 5.30 to 6.00.
As for `COc1cncc2c(NC(=O)c3cnn(Cc4ccc(C(F)(F)F)cc4)c3)c[nH]c12` [Compound 117, N-(7-methoxy-1H-pyrrolo[3,2-c]pyridin-3-yl)-1-(4-(trifluoromethyl)benzyl)-1H-pyrazole-4-carboxamide], the pEC50 is 4.00 to 5.30.
Compound `COc1ccc2[nH]cc(NC(=O)c3cnn(Cc4ccc(C(F)(F)F)cc4)c3)c2n1` [Compound 118, N-(5-methoxy-1H-pyrrolo[3,2-b]pyridin-3-yl)-1-(4-(trifluoromethyl)benzyl)-1H-pyrazole-4-carboxamide] showed a pEC50 of 5.30 to 6.00.
`O=C(Nc1c[nH]c2cc(F)c(F)cc12)c1cc(-c2cccnc2)[nH]n1` [Compound 119, N-(5,6-difluoro-1H-indol-3-yl)-5-(pyridin-3-yl)-1H-pyrazole-3-carboxamide]: the pEC50 is 4.00 to 5.30.
Next, `O=C(Nc1c[nH]c2cc(F)c(F)cc12)c1cnn(CC2CCC(F)(F)CC2)c1` [Compound 122, N-(5,6-difluoro-1H-indol-3-yl)-1-((4,4-difluorocyclohexyl)methyl)-1H-pyrazole-4-carboxamide]: 6.00 to 6.70.
`N#Cc1cccc(-c2cc(C(=O)Nc3c[nH]c4cc(F)c(F)cc34)no2)c1` [Compound 123, 5-(3-cyanophenyl)-N-(5,6-difluoro-1H-indol-3-yl)isoxazole-3-carboxamide]: the pEC50 was 6.00 to 6.70.
To `O=C(Nc1c[nH]c2cc(F)c(F)cc12)c1cnn(CCOc2cccnc2)c1` [Compound 124, N-(5,6-difluoro-1H-indol-3-yl)-1-(2-(pyridin-3-yloxy)ethyl)-1H-pyrazole-4-carboxamide] belongs 4.00 to 5.30; to `Cc1cncc2c(NC(=O)c3cnn(Cc4ccc(C(F)(F)F)cc4)c3)c[nH]c12` [Compound 125, N-(7-methyl-1H-pyrrolo[3,2-c]pyridin-3-yl)-1-(4-(trifluoromethyl)benzyl)-1H-pyrazole-4-carboxamide], 5.30 to 6.00; to `COc1cc2[nH]cc(NC(=O)c3cnn(Cc4ccc(C(F)(F)F)cc4)c3)c2cn1` [Compound 126, N-(6-methoxy-1H-pyrrolo[3,2-c]pyridin-3-yl)-1-(4-(trifluoromethyl)benzyl)-1H-pyrazole-4-carboxamide], 5.30 to 6.00.
Consider `O=C(Nc1c[nH]c2cc(F)c(F)cc12)c1ccnn1CCOc1cccnc1` [Compound 127, N-(5,6-difluoro-1H-indol-3-yl)-1-(2-(pyridin-3-yloxy)ethyl)-1H-pyrazole-5-carboxamide], for which the pEC50 was 4.00 to 5.30.
Compound `O=C(Nc1c[nH]c2c(F)cncc12)c1cnn(Cc2ccc(C(F)(F)F)cc2)c1` [Compound 128, N-(7-fluoro-1H-pyrrolo[3,2-c]pyridin-3-yl)-1-(4-(trifluoromethyl)benzyl)-1H-pyrazole-4-carboxamide] had a pEC50 of 6.00 to 6.70.
